In this assay the target is T1, aminopeptidase A (EC 3.4.11.7) (Rattus norvegicus, UniProt P50123).
T1 construct: aminopeptidase A (EC 3.4.11.7) (rat lung microsomes); from tissue; host or cells: rat lung microsomes
As to the kind of experiment: Specificity of apstatin: aminopeptidase A. It is filed as biochemical. The following applies: rat lung microsomes; α-Glu-β-Na, pH 6.8, HPLC-1. Here is the method: Specificity of Apstatin--Apstatin was assayed for its ability to inhibit several other peptidases. […] Unless otherwise indicated, the source of each enzyme activity was a detergent extract of bovine lung prepared as described in (12-13). Activities were determined by a modification of the fluorescent assay described above (indicated by "FLUO") or by HPLC separation and quantitation of reaction products using the method described in (12) (method "HPLC-1") or the method described below (method "HPLC-2"). […]

Each structure is given as a SMILES string.

T1 sequence (P50123 whole entry): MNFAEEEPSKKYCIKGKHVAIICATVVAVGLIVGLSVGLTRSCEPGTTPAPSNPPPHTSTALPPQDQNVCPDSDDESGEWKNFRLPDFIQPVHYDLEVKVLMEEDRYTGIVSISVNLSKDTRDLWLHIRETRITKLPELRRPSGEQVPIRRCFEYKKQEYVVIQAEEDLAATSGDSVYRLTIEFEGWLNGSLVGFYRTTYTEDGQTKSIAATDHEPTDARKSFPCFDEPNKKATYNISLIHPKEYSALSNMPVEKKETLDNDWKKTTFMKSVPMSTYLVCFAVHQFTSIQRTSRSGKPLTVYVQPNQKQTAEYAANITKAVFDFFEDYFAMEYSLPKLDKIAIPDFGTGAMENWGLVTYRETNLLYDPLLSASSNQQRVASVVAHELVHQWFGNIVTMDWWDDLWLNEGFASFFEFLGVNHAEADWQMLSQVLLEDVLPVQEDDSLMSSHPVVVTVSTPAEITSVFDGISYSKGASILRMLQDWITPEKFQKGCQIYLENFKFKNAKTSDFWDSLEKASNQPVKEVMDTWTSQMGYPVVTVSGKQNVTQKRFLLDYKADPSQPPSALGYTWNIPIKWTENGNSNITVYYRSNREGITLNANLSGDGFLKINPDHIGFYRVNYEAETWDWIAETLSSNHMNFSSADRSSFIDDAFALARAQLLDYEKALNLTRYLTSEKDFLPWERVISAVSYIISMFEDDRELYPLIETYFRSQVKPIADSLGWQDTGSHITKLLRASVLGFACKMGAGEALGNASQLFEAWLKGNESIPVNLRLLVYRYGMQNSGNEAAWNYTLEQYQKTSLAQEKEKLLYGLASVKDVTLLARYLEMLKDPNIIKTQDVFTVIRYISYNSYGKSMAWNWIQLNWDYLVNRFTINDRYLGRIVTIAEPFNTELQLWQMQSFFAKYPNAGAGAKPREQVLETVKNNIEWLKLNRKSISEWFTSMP

By IC50 is commonly meant the concentration at which inhibition is half-maximal. For `C[C@H](NC(=O)[C@@H]1CCCN1C(=O)[C@@H]1CCCN1C(=O)[C@@H](O)[C@H](N)Cc1ccccc1)C(N)=O` [apstatin, N-[(2S, 3R)-3-amino-2-hydroxy-4-phenylbutanoyl]-L-prolyl-L-prolyl-Lalaninamide], the IC50 was above 800 µM.

The record behind these values is patent US5656603A (Loyola University of Chicago, priority 1995, dated 1997).
